We go through ten compounds from US11046698B2, “TYK2 inhibitors and uses thereof” (Nimbus Lakshmi, Inc., priority 2017, dated 2021).

For test [1], the target named is JAK2 kinase domain (JH1) (Homo sapiens (Human), UniProt O60674). Put plainly: JAK2 Radioactive Kinase Assay. Conditions: ATP 10 μM. The format is biochemical. The method, then: (§1) The Tyk2 and JAK2 radioactive kinase assay measures the percent inhibiton at the Tyk2 kinase domain (JH1) and the percent inhibiton at the JAK2 kinase domain (JH1). Results of the assay are expressed as percent inhibition at 10 μM.
JAK2 kinase domain (JH1), sequence (O60674 849-1124): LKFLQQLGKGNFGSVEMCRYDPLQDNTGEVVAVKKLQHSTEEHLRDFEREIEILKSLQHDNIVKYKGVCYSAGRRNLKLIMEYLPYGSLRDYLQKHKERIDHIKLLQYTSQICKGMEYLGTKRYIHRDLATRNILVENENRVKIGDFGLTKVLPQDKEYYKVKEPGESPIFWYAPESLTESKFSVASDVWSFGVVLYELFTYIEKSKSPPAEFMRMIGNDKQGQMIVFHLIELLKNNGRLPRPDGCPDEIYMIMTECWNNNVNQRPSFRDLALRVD

The target in test [2] is Tyk2 kinase domain (JH1) (Homo sapiens (Human), UniProt P29597). Nature of the test: Tyk2 Radioactive Kinase Assay. The format is biochemical. The settings on record: ATP 10 μM. The protocol:
as §1

Test [3] concerns IL-12 induced STAT4 phophorylation mediated by Tyk2/JAK2 (heterodimeric complex). Nature of the test: IL-12 Induced pSTAT4 in Human PBMC. It counts as cell-based. Conditions: 1.7 ng/mL IL-12. From the text: The IL-12 Induced pSTAT4 assay evaluates the inhibition of IL-12 induced STAT4 phophorylation mediated by Tyk2/JAK2 (heterodimeric complex).
The subject of test [4] is GM-CSF induced STAT5 phosphorylation mediated by the JAK2/JAK2 homodimeric complex. Nature of the test: GM-CSF Induced pSTAT5 in Human PBMC. The settings on record: 20 min, read-out: PBMC_GMCSF_pSTAT5 IC50 (μM), human PBMC, GM-CSF 5 ng/mL for 20 minutes, pSTAT5 by MSD.
The target of test [5] is human TYK2 (JH2domain-pseudokinase) (Homo sapiens (Human), UniProt P29597). Nature of the test: TYK2 JH2 Domain Binding Assay (KINOMEscan, DiscoveRx). The protocol:
Binding constants for compounds of the present invention against the JH2 domain were determined by the following protocol for a KINOMEscan® assay (DiscoveRx). A fusion protein of a partial length construct of human TYK2 (JH2domain-pseudokinase) (amino acids G556 to D888 based on reference sequence NP_003322.3) and the DNA binding domain of NFkB was expressed in transiently transfected HEK293 cells. From these HEK 293 cells, extracts were prepared in M-PER extraction buffer (Pierce) in the presence of Protease Inhibitor Cocktail Complete (Roche) and Phosphatase Inhibitor Cocktail Set II (Merck) per manufacturers' instructions. The TYK2(JH2domain-pseudokinase) fusion protein was labeled with a chimeric double-stranded DNA tag containing the NFkB binding site (5′-[…]-3′) fused to an amplicon for qPCR readout, which was added directly to the expression extract (the final concentration of DNA-tag in the binding reaction is 0.1 nM). […]
Extracts were used directly in binding assays without any enzyme purification steps at a ≥10,000-fold overall stock dilution (final DNA-tagged enzyme concentration <0.1 nM). […] Kds were determined using an 11-point 3-fold compound dilution series with three DMSO control points. […]
Kds were determined using an 11-point 3-fold compound dilution series with three DMSO control points. […] The Kds were determined using a compound top concentration of 30,000 nM. […]

The term inhibition denotes the drop in the measured response relative to a control, in per cent. Usually Kd stands for the free concentration of one partner at which half of the binding sites on the other are occupied at equilibrium, for simple one-to-one binding. A lower Kd goes with higher affinity.

Tyk2 kinase domain (JH1), sequence (P29597 897-1176): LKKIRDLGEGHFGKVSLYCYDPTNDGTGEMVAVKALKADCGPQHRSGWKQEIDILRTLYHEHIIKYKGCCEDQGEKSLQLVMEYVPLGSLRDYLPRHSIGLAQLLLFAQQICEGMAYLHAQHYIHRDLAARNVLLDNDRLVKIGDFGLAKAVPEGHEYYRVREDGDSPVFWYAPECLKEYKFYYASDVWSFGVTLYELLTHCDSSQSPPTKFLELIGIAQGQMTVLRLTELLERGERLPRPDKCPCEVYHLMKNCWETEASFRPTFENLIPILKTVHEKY
human TYK2 (JH2domain-pseudokinase), sequence (P29597 556-888): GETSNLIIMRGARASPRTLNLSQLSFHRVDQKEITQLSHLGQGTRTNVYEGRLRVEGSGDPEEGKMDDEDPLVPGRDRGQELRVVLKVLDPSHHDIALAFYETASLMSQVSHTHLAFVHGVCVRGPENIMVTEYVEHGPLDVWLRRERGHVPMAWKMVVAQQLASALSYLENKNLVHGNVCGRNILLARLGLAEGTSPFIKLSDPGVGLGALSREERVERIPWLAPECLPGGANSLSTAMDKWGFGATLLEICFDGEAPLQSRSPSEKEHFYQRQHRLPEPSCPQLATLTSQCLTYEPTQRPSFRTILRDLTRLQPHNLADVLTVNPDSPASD

Consider `CNc1cc(Nc2cccnc2OC)nc2c(C(=O)NC3CC4(COC4)C3)cnn12` [I-408], for which the inhibition at 10 µM in test [1] (10 μM compound) and in test [2] (10 μM compound) was less than 50% throughout. `CNc1cc(-c2cn([C@H]3CCN(CCF)C3)c3ncccc23)nc2c(C(=O)N[C@@H]3C[C@@H]3F)cnn12` [I-1362] displayed an IC50 in test [3] of less than 100 nM. Consider `CNc1cc(Nc2cccn([C@H]3CC[C@](C)(OC)CC3)c2=O)nc2c(C(=O)N[C@H]3C[C@H]3F)cnn12` [I-362], for which the figures for the IC50 in test [4] and in test [3] were more than 50 µM and less than 100 nM, respectively. Consider `CNc1cc(Nc2cccn([C@H]3CC[C@H](OC)CC3)c2=O)nc2c(C(=O)N[C@H]3COC[C@H]3O)cnn12` [I-746], for which, in test [1] (10 μM compound), the “JAK2 JH1% Inhibition @ 10 μM” value was “A (had a percent inhibition at 10 μM lower than 50)”. Moreover, the “Tyk2 JH1% Inhibition @ 10 μM” value in test [2] (10 μM compound) is recorded as “A (had a percent inhibition at 10 μM lower than 50)”. Compound `CNc1cc(-c2cn(C(C)C)c3ncc(F)cc23)nc2c(C(=O)N[C@H]3CC[C@H]3O)cnn12` [I-1387] registered an IC50 in test [3] of less than 100 nM. `CNc1cc(Nc2cccc([C@@H]3CCCOC3)n2)nc2c(C(=O)N[C@H]3CC[C@@H]3O)cnn12` [I-664]: the inhibition at 10 µM in test [1] (10 μM compound) and in test [2] (10 μM compound) was less than 50% throughout. In test [5], `CNc1cc(Nc2cccn([C@H]3CC[C@@H]3OC)c2=O)nc2c(C(=O)NC3CC3)cnn12` [I-936] gave a Kd of 0.2 to 1 nM. As for `CNc1cc(Nc2cccn([C@H]3CC[C@@H](N4CCOCC4)CC3)c2=O)nc2c(C(=O)N[C@H]3C[C@H]3F)cnn12` [I-304], the “JAK2 JH1% Inhibition @ 10 μM” value in test [1] (10 μM compound) is on record as “A (had a percent inhibition at 10 μM lower than 50)”. Further, the “Tyk2 JH1% Inhibition @ 10 μM” value in test [2] (10 μM compound) is given as “A (had a percent inhibition at 10 μM lower than 50)”. On to `CNc1cc(Nc2cccn3ccnc23)cc2c(C(=O)N[C@H]3CC[C@@H]3OC)cnn12` [I-1052], for which the IC50 in test [4] is more than 50 µM. In addition, the inhibition at 10 µM in test [1] (compound at 10 μM) and in test [2] (compound at 10 μM) was less than 50% each time. The dissociation constant Kd in test [5] was less than 0.2 nM. As for `CNc1cc(Nc2cc(Cl)cn([C@@H]3CCCOC3)c2=O)nc2c(C(=O)N[C@@H]3C[C@@H]3F)cnn12` [I-773], the IC50 in test [4] is more than 12.5 µM; in test [3], less than 100 nM.
